System: virus-stock de souche HSV1
Assay: Virucidal properties on HSV1 stock virus (infectious titre after incubation at 37°C)
Type: cell-based
Procedure: On a apprécié les propriétés virucides du 3,5-di-t-butyl-4-hydroxybenzoate d'octaoxyéthylèneglycol de formule : [drawing 23] dénommé ci-après par commodité AVF1, sur un échantillon de "virus-stock" de souche HSV1. Le titre infectieux (TV) d'échantillons traités avec AVF1 a été comparé au titre infectieux (TV0) d'un échantillon témoin afin de calculer la valeur log (TV/TV0).
Le protocole a consisté à incuber à 37°C l'échantillon de virus HSV1 stock avec le composé AVF1, en faisant varier la concentration en AVF1 et le temps d'incubation. TV0 a été déterminé à partir d'une composition constituée de 0,5 ml de milieu de culture MEM et 0,5 ml de virus-stock et TV a été déterminée à partir d'une composition constituée de 0,5 ml de AVF1 à diverses concentrations dans ledit milieu MEM et de 0,5 ml de virus-stock. Les valeurs TV0 et TV obtenus sont des multiples de la DI50/ml.
• Concentrations en AVF1 : 0,03; 0,06; 0,12; 0,25; 0,5; 1,25; 2,5; 5 mg/ml. • Temps d'incubation : 60 et 120 minutes. • Résultats : • Titre du témoin-virus : […] DI50/ml. • AVF1 < 2,5 mg/ml : TV. • AVF1 ≥ 2,5 mg/ml : 0. • Conclusions : AVF1 est virucide en 60 minutes à la concentration 2,5 mg/ml.
• Concentrations en AVF1 : 1 et 5 mg/ml. • Temps d'incubation : 5, 15, 30, et 60 minutes. • Résultats : • Titre du témoin-virus : 2 x 10^6 DI50/ml • AVF1 = 5 mg/ml : virucide en 5 minutes, titre = 0. • AVF1 = 1 mg/ml : le titre est réduit de 1,5 log 10 en 60 minutes.

For CC(C)(C)c1cc(C(=O)OCCOCCOCCOCCOCCOCCOCCOCCO)cc(C(C)(C)C)c1O [AVF1, 3,5-di-t-butyl-4-hydroxybenzoate d'octaoxyéthylèneglycol], the “concentration virucide en 60 minutes” value (Essai 1, 60 minutes, 37°C) was 2,5 mg/ml, the “Titre infectieux (TV)” value (Essai 1, AVF1 ≥ 2,5 mg/ml, incubation 60 and 120 minutes, 37°C) was 0 DI50/ml and the réduction du titre (Essai 2, AVF1 = 1 mg/ml, 60 minutes) was 1,5 log 10. The titre (Essai 2, AVF1 = 5 mg/ml, virucidal in 5 minutes) was 0 DI50/ml.
